# Results taken from paper PMC9346611, “Impact of an Adenosine A2A Receptor Agonist and Antagonist on Binding of the Dopamine D2 Receptor Ligand [^11C]raclopride in the Rodent Striatum” (Molecular Pharmaceutics, 2022).
# Where two headings read alike, the source gives them in different places. Marks after values point to notes of the source that are not given here.
# Columns and labels:
# dopamine D2/D3 receptors = target: dopamine D2/D3 receptors; parameters: method as in PMID 2528555; conditions: cited from earlier work
# [1] = Heart rate monitoring with pulse oximeters during PET scan; format: in vivo; conditions: 1 mg/kg, persisted throughout the scan
# D2R [2] = system: D2R; parameters: method as in PMID 11435907; conditions: rat brain slices, striatal area; cited from earlier work
# dopamine release [3] = system: dopamine release; parameters: method as in PMID 15525341; conditions: locally administered 3, 10, 50, and 100 μM; cited from earlier work
# D2R [4] = conditions: CHO cells co-transfected with A2AR and D2R; cited from earlier work
# dopamine D2R = system: dopamine D2R; parameters: method as in PMID 1678519; conditions: rat striatal membrane preparations; cited from earlier work
# D2R [5] = system: D2R; parameters: method as in PMID 11435907; conditions: human brain slices, striatal area; cited from earlier work
# human D2R = system: human D2R; parameters: method as in PMID 8982704, PMID 10617149; conditions: SH-SY5Y cells; cited from earlier work
# D2R [6] = system: D2R; parameters: method as in PMID 26100888; conditions: transiently transfected CHO cells; cited from earlier work
# dopamine release [7] = system: dopamine release; parameters: method as in PMID 10502311; conditions: low doses 0.01–1 μM; cited from earlier work
# dopamine D2 receptor = conditions: 1 mg/kg
# Experimental: Pretreatment of animals with a high dose of a specific (nonradioactive) receptor ligand is the standard method used in PET imaging to assess whether a PET tracer binds to its intended target. […] Only one PET scan was made in animals subjected to arterial blood sampling.
# Blood samples with a volume of 0.10–0.13 mL were drawn from the femoral artery at 10, 20, 30, 40, 50, 60, and 90 s and 2, 3, 5, 7.5, 10, 15, 30, and 60 min after tracer administration. After the collection of each sample, an equal volume of saline with 1% heparin was infused into the artery to compensate for the blood volume loss. Larger blood samples (0.8–1 mL) were drawn at 5, 10, 30, and 60 min for [^11C]raclopride metabolite analysis. From each blood sample, a plasma sample was obtained by the centrifugation of whole blood for 5 min at 3000 g.
# [8] = cited from earlier work
# [9] = parameters: method as in PMID 1684818; conditions: cited from earlier work
# D2R/D3R = system: D2R/D3R; parameters: method as in PMID 25871974; conditions: human, oral 300 mg; cited from earlier work
Compound,affinity of D2R for radioligands [^3H]quinpirole and [^3H]raclopride (D2R [6]),"k3, accumbens (2TCM) (dopamine D2 receptor)","k3, caudate-putamen (2TCM) (dopamine D2 receptor)","k3, cerebellum (2TCM) (dopamine D2 receptor)","k3, globus pallidus (2TCM) (dopamine D2 receptor)","k3, striatum (2TCM) (dopamine D2 receptor)","k3/k4, accumbens (2TCM) (dopamine D2 receptor)","k3/k4, caudate-putamen (2TCM) (dopamine D2 receptor)","k3/k4, cerebellum (2TCM) (dopamine D2 receptor)","k3/k4, globus pallidus (2TCM) (dopamine D2 receptor)","k4, accumbens (2TCM) (dopamine D2 receptor)","k4, caudate-putamen (2TCM) (dopamine D2 receptor)","k4, cerebellum (2TCM) (dopamine D2 receptor)","k4, globus pallidus (2TCM) (dopamine D2 receptor)","k4, striatum (2TCM) (dopamine D2 receptor)",other results
CCN1CCC[C@H]1CNC(=O)c1c(O)c(Cl)cc(Cl)c1OC (racemic) [[^11C]raclopride],–,–,–,–,–,–,–,–,–,–,–,–,–,–,–,Kd (dopamine D2/D3 receptors; read-out: affinity (Kd) by equilibrium analysis): 10 nM; Kd (dopamine D2/D3 receptors; read-out: equilibrium dissociation constant KdVR by compartmental modeling): 6.2 nM
CCNC(=O)[C@H]1O[C@@H](n2cnc3c(N)nc(NCCc4ccc(CCC(=O)O)cc4)nc32)[C@H](O)[C@@H]1O [CGS21680],reduces the affinity,0.012 ± 0.006*** min^–1,0.034 ± 0.014*** min^–1,0.028 ± 0.012*** min^–1,0.029 ± 0.017*** min^–1,0.033 ± 0.013*** min^–1,0.87 ± 0.20,1.28 ± 0.35,1.19 ± 0.32,1.63 ± 3.6,0.015 ± 0.008*** min^–1,0.026 ± 0.009** min^–1,0.023 ± 0.010** min^–1,0.022 ± 0.021** min^–1,0.026 ± 0.009** min^–1,"heart rate, reduction in some animals down to [1]: 94 bpm; IC50 values of competition between [^125I]iodosulpiride and dopamine (D2R [2]): significant increase; dopamine release in entire striatum and shell of nucleus accumbens (dopamine release [3]): increase; change of D2R numbers (D2R [4]): without any change; change of affinity of D2R for dopamine (D2R [4]): three- to fourfold decrease; decrease of affinity of dopamine D2R for agonist L-(−)-[^3H]NPA (dopamine D2R): 40%; IC50 values of competition between [^125I]iodosulpiride and dopamine (D2R [5]): significant increase; change of affinity of D2R to agonists (human D2R): two- to threefold decreased; electrically evoked dopamine release (dopamine release [7]): inhibit"
"CCn1c(=O)c2c(nc(/C=C/c3ccc(OC)c(OC)c3)n2C)n(CC)c1=O [KW6002, istradefylline]",–,0.035 ± 0.015 min^–1,0.086 ± 0.027** min^–1,0.072 ± 0.028 min^–1,0.087 ± 0.028* min^–1,0.085 ± 0.027** min^–1,0.91 ± 0.27,2.02 ± 0.52,1.75 ± 0.52,1.86 ± 0.54,0.039 ± 0.013 min^–1,0.043 ± 0.012 min^–1,0.041 ± 0.011 min^–1,0.048 ± 0.013 min^–1,0.043 ± 0.011 min^–1,"peripheral effects ([8]; rat, in vivo): does not have potent peripheral effects; tolerability after intraperitoneal administration ([8]; rats, doses up to 3 mg/kg): well tolerated; k3/k4, striatum (2TCM) (dopamine D2 receptor): 2.00 ± 0.53"
"CCNC(=O)[C@H]1O[C@@H](n2cnc3c(N)ncnc32)[C@H](O)[C@@H]1O [NECA, 5’-N-ethylcarboxamide adenosine]",–,–,–,–,–,–,–,–,–,–,–,–,–,–,–,"effect on heart rate, bolus of low doses [9]: tachycardia; effect on heart rate, high dose ([9]; total dose of 3 mg/kg infused over 60 min): rapid reduction in heart rate"
Cn1c(=O)c2c(ncn2C)n(C)c1=O [caffeine],reduces the affinity,–,–,–,–,–,–,–,–,–,–,–,–,–,–,increase of D2R/D3R availability in putamen and ventral striatum (D2R/D3R): 5–6%
